Measured values: article PMC10046377, “Inhibitors of the Oncogenic PA2G4-MYCN Protein-Protein Interface” (Cancers, 2023)

Key:
Kelly cells = experiment: Colony formation assay, Kelly; format: cell-based, human; conditions: increasing concentrations, 2 weeks
Experimental: A total of 250 SK-N-BE(2)-C and 500 Kelly cells were seeded in 6-well plates and treated with #5333 and #5338 24 h after seeding. Once colonies had formed (14 days for Kelly, 10 days for SK-N-BE(2)-C), cells were fixed and stained with 0.5% crystal violet in 50% methanol and washed twice to remove the unincorporated stain. The photos of colonies were taken by ChemiDoc MP Imaging System (Bio-Rad, South Granville, NSW, Australia). Stained colonies were counted, and colony size was measured using Image J software.
We treated human neuroblastoma tumour cell lines with high MYCN and PA2G4 expression (Kelly and SK-N-BE(2)-C), using increasing concentrations of #5333 or #5338, and measured the ability of cells to proliferate and form colonies in vitro over 2 weeks. […] Next, we evaluated cell replication using the BrdU uptake assay in response to 30 μM drug treatment for 48 h (Figure 2C).

SHEP MYCN3 cells = experiment: Alamar Blue viability, SHEP MYCN3 cells with Dox-inducible MYCN induction; format: cell-based, human; conditions: Dox-induced MYCN expression, 72 h treatment, compared with DMSO treated controls and WS6
Source text: The MYCN amplified neuroblastoma cell line SK-N-BE(2)-C was kindly provided by Professor June Biedler (Memorial Sloan Kettering Cancer Centre, New York, NY, USA), and Kelly was obtained from European Collection of Cell Cultures. The two normal lung fibroblast cell lines (MRC-5 and WI-38) were purchased from ATCC. SK-N-BE(2)-C shMYCN#2 doxycycline-inducible cell and Kelly shMYCN#2 doxycycline-inducible cell were custom-made by GenScript (Piscataway, NJ, USA). SK-N-BE(2)-C, SK-N-BE(2)-C shMYCN#2, and SHEP MYCN3 doxycycline-inducible cells were maintained in Dulbecco’s modified Eagle’s medium (DMEM) (Invitrogen, Life Technologies, Waltham, MA, USA) with 10% foetal calf serum (FCS). […]
(§1) Cell viability was determined by the Alamar Blue assay (75 mg resazurin, 12.5 mg methylene blue, 164.5 mg potassium hexacyanoferrate (III), 211 mg potassium hexacyanoferrate (II) trihydrate in 500 mL of phosphate buffered saline). After 6 h incubation with Alamar Blue, the change of fluorescence was measured by Victor 3 multilabel Plate Reader (Perkin Elmer Australia, Melburne, Australia) at an excitation wavelength of 560 nm and an emission wavelength of 590 nm.
Next, we examined whether #5333 and #5338 treatment for 48 h affected the levels of WS6 target proteins, PA2G4, and MYCN in neuroblastoma cells. […] Cell viability was measured following #5333 and #5338 treatments for 48–72 h. […]

SK-N-BE(2)-C cells = experiment: Label-free quantitative LC/MS proteomics of treated SK-N-BE(2)-C cells; format: cell-based, human; conditions: 72 h, versus DMSO, LFQ LC/MS
Experimental: SK-N-BE(2)-C cells were incubated with #5333 or #5338 at IC50 concentration of the compound for 72 h. Cells were harvested and the pellets were lysed with RIPA buffer containing protease inhibitors (Sigma-Aldrich, St. Louis, MO, USA). Cell lysates were sent for LFQ/LC/MS analysis at the Bioanalytical Mass Spectrometry Facility, UNSW Sydney. […] Differential protein expression analysis was performed using the DEP (v1.14.0) package in R(v4.1.1). Variance stabilising transformation (vsn) method was used to normalise the protein expression data. Threshold of p-value < 0.05 and log2 fold-change value > |0.6| was used as a cut off to identify differentially expressed proteins. Functional enrichment analysis was performed using DAVID (v 6.8).
To further understand the mechanism of action and off target effects of the WS6 analogues, we used label-free quantitative mass spectrometry of differential proteome expression in response to drug treatment. […] A total of 4255 unique proteins were captured across the three proteomes, of which 258 proteins were differentially expressed after treatment with #5333, and 1371 proteins treated with #5338, when compared to DMSO-treated cells (Figure 4A,B and Supplementary Figure S4A).

Kelly shMYCN cells = experiment: Alamar Blue viability, Dox-inducible Kelly shMYCN cells; format: cell-based; conditions: Homo sapiens, 72 h, 72 h treatment
Source text: The MYCN amplified neuroblastoma cell line SK-N-BE(2)-C was kindly provided by Professor June Biedler (Memorial Sloan Kettering Cancer Centre, New York, NY, USA), and Kelly was obtained from European Collection of Cell Cultures. The two normal lung fibroblast cell lines (MRC-5 and WI-38) were purchased from ATCC. SK-N-BE(2)-C shMYCN#2 doxycycline-inducible cell and Kelly shMYCN#2 doxycycline-inducible cell were custom-made by GenScript (Piscataway, NJ, USA). SK-N-BE(2)-C, SK-N-BE(2)-C shMYCN#2, and SHEP MYCN3 doxycycline-inducible cells were maintained in Dulbecco’s modified Eagle’s medium (DMEM) (Invitrogen, Life Technologies, Waltham, MA, USA) with 10% foetal calf serum (FCS). Kelly and Kelly shMYCN#2 doxycycline-inducible cell were cultured in Roswell Park Memorial Institute (RPMI) 1640 (Invitrogen, Life Technologies) with 10% FCS. MRC-5 and WI-38 were cultured in Alpha-MEM media (Invitrogen, Life Technologies) with 10% FCS. All cells were not cultured for more than 2 months. All used cell lines were authenticated by Cell Bank Australia (Westmead, NSW, Australia) as being free from mycoplasma, and cultured at 37 °C and 5% CO2 in a humidifier incubator.
as §1
Next, we examined whether #5333 and #5338 treatment for 48 h affected the levels of WS6 target proteins, PA2G4, and MYCN in neuroblastoma cells. […] To determine the specificity of #5333 and #5338 for MYCN, we used two different doxycycline (Dox)-inducible neuroblastoma cell systems for repression of MYCN expression: shMYCN SK-N-BE(2)-C (MYCN-amplified) and shMYCN Kelly (MYCN-amplified) cell lines. Cell viability was measured following #5333 and #5338 treatments for 48–72 h. […] In addition, the specificity and efficacy of #5333 and #5338 were also tested in MYCN non-amplified SHEP MYCN3 cell lines with Dox-inducible MYCN induction. Cell viability was measured following #5333, #5338, or WS6 treatments for 72 h.
Figure 3 Compounds #5333 and #5338 functionally interact with MYCN and PA2G4 in neuroblastoma cells. (A) Western blot showing a decrease in protein expression due to #5333 or #5338 drug treatment. (B) Alamar Blue assays comparing cell viability of SK-N-BE(2)-C after Doxycycline (Dox)-inducible MYCN knockdown, followed by 72 h treatment with #5333 or #5338. […]

[1] = Dox (2 μg/ml) +, MYCN - (knockdown)

SMILES | colony number and size, Kelly (Kelly cells) | change of IC50 on MYCN induction, SHEP MYCN3 (SHEP MYCN3 cells) | GATA2 protein fold change (SK-N-BE(2)-C cells) | IC50 (Kelly shMYCN cells; [1]) | IC50 (Kelly shMYCN cells; Dox (2 μg/ml) -, MYCN +)
Cc1cccc(Oc2cc(N3CCC(C(=O)NCc4cccc(Br)c4)CC3)ncn2)c1C [#5333] | decreased both the number and size of the colonies | significant decrease in IC50 | −4.2 | 52.8 µM | 22.4 µM
Cc1cccc(Oc2cc(N3CCC(C(=O)N[C@@H](C)CCc4ccccc4)CC3)ncn2)c1C [#5338] | decreased both the number and size of the colonies | significant decrease in IC50 | −5.5 | 31.5 µM | 16 µM
